Source: ChEMBL document CHEMBL1123536, “Studies on Ca2+ channel antagonists. 5-[(3,4-Dimethoxyphenethyl)methylamino]-2-(3,4-dimethoxyphenyl)-2- isopropylpentyl isothiocyanate, a chemoaffinity ligand derived from verapamil” (J Med Chem, 1986)

Assays:
Rattus norvegicus [1] = species: Rattus norvegicus; experiment: Compound was evaluated for the concentration dependent negative ionotropic effect in rat right myocardial ventricular strips; type: functional; conditions: Cardiac ventricle
Rattus norvegicus [2] = species: Rattus norvegicus; experiment: Compound was evaluated for the displacement of [3H]gallopamil from specific binding sites on rat myocardial membrane particulates; conditions: Myocardium

In the case of `COc1ccc(CCN(C)CCCC(C#N)(c2cc(OC)c(OC)c(OC)c2)C(C)C)cc1OC` (stereo unspecified) [GALLOPAMIL], the EC50 (Rattus norvegicus [1]) is reported as 1950 nM and the IC50 (Rattus norvegicus [2]) is reported as 16 nM.
`COc1ccc(CCN(C)CCCC(CN=C=S)(c2ccc(OC)c(OC)c2)C(C)C)cc1OC` (stereo unspecified) gave an EC50 (Rattus norvegicus [1]) of 4560 nM and an IC50 (Rattus norvegicus [2]) of 342 nM.
`COc1ccc(CCN(C)CCCC(C#N)(c2ccc(OC)c(OC)c2)C(C)C)cc1OC` (stereo unspecified) [VERAPAMIL] gave an EC50 (Rattus norvegicus [1]) of 2510 nM and an IC50 (Rattus norvegicus [2]) of 362 nM.
